Active and inactive are the calls of the source. The rule behind the calls is not given here.
test system: not listed separately; test: Inhibition of Influenza A virus A/udorn/72(H3N2) wild type M2 proton channel expressed in yeast assessed as growth restoration measured after 44 hrs by turbidometric assay; parameters: species or system Influenza A virus (A/udorn/1972(H3N2)); conditions: not given

SMILES	EC50 [µM]
CCN1CCN(CCNC2=NC(C)(C)[C@]3(CC[C@H](C)CC3)S2)CC1	> 30
CC1(C)N=C(NCc2ccccc2O)S[C@]12CC[C@@H](C)CC2	10
CN(C)CCNC1=NC(C)(C)[C@]2(CC[C@H](C)CC2)S1	100
CC1(C)N=C(NCc2cccnc2)S[C@]12CC[C@@H](C)CC2	5
CCCCN1CCN(CCNC2=NC(C)(C)[C@]3(CC[C@H](C)CC3)S2)CC1	3
CC1(C)N=C(NCc2ccccn2)S[C@]12CC[C@@H](C)CC2	10
CC1(C)N=C(NCCN2CCN(CCO)CC2)S[C@]12CC[C@@H](C)CC2	50
CC1(C)N=C(NCCn2ccnc2)S[C@]12CC[C@@H](C)CC2	> 100
CC1(C)N=C(NCCN2CCN(S(=O)(=O)c3ccccc3)CC2)S[C@]12CC[C@@H](C)CC2	18
CC1(C)N=C(NCCN2CCCCC2)S[C@]12CC[C@@H](C)CC2	> 100
CN(C)CCN1CCN(CCNC2=NC(C)(C)[C@]3(CC[C@H](C)CC3)S2)CC1	70
CC1(C)N=C(N2CCNCC2)S[C@]12CC[C@@H](C)CC2	> 100
CC1(C)N=C(N2CCCCC2)S[C@]12CC[C@@H](C)CC2	10
CC(C)CCN1CCN(CCNC2=NC(C)(C)[C@]3(CC[C@H](C)CC3)S2)CC1	10
CC1(C)N=C(NCc2cccc(O)c2)S[C@]12CC[C@@H](C)CC2	> 40
CC1(C)N=C(NCCc2ccncc2)S[C@]12CC[C@@H](C)CC2	> 100
CN1CCN(C2=NC(C)(C)[C@]3(CC[C@H](C)CC3)S2)CC1	> 100
CC1(C)N=C(N2CCOCC2)S[C@]12CC[C@@H](C)CC2	0.7
CC1(C)N=C(N)S[C@]12CC[C@@H](C)CC2	0.03

SMILES	EC50 [µM]
NC12CC3CC(CC(C3)C1)C2 [AMANTADINE]	0.1
CC1(C)N=C(NCCc2cccnc2)S[C@]12CC[C@@H](C)CC2	0.9
CC1(C)N=C(NCC2CCNCC2)S[C@]12CC[C@@H](C)CC2	> 100
CC1(C)N=C(NCCN2CCCC2)S[C@]12CC[C@@H](C)CC2	8
CC1(C)N=C(NCc2ccncc2)S[C@]12CC[C@@H](C)CC2	2
CC1(C)N=C(NCCN2CCOCC2)S[C@]12CC[C@@H](C)CC2	> 100
CCCCCCCCN1CCN(CCNC2=NC(C)(C)[C@]3(CC[C@H](C)CC3)S2)CC1	10
CC(=O)N1CCN(CCNC2=NC(C)(C)[C@]3(CC[C@H](C)CC3)S2)CC1	26
CN1CCC(CNC2=NC(C)(C)[C@]3(CC[C@H](C)CC3)S2)CC1	10
CC(C)N1CCN(CCNC2=NC(C)(C)[C@]3(CC[C@H](C)CC3)S2)CC1	30
Cc1cnc(CN2CCN(CCNC3=NC(C)(C)[C@]4(CC[C@H](C)CC4)S3)CC2)cn1	20
CC1(C)N=C(NCCN2CCN(Cc3ccccc3)CC2)S[C@]12CC[C@@H](C)CC2	0.6
CC1(C)N=C(NCc2ccc(O)c(F)c2)S[C@]12CC[C@@H](C)CC2	10
CC1(C)N=C(NCCc2ccccn2)S[C@]12CC[C@@H](C)CC2	3
COc1ccc(CNC2=NC(C)(C)[C@]3(CC[C@H](C)CC3)S2)c(OC)c1	> 30
CCOCCN1CCN(CCNC2=NC(C)(C)[C@]3(CC[C@H](C)CC3)S2)CC1	2.1
CC1(C)N=C(NCCN2CCNCC2)S[C@]12CC[C@@H](C)CC2	2.6
CC1(C)N=C(NCCN2CCN(CC3CCCCC3)CC2)S[C@]12CC[C@@H](C)CC2	20
CN1CCN(CCNC2=NC(C)(C)[C@]3(CC[C@H](C)CC3)S2)CC1	3

test system: not listed separately; test: Cytotoxicity against yeast cells assessed as growth inhibition after 44 hrs by turbidometric assay; type: toxicity, cell-based; conditions: Saccharomyces cerevisiae

SMILES	IC50 at 44 h [µM]
CCCCOc1ccc(CN2CCN(CCNC3=NC(C)(C)[C@]4(CC[C@H](C)CC4)S3)CC2)cc1	3
CC1(C)N=C(NS(=O)(=O)c2ccccc2)S[C@]12CC[C@@H](C)CC2	30
CCN1CCN(CCNC2=NC(C)(C)[C@]3(CC[C@H](C)CC3)S2)CC1	100
CC1(C)N=C(NCc2ccccc2O)S[C@]12CC[C@@H](C)CC2	100
COc1ccc(CNC2=NC(C)(C)[C@]3(CC[C@H](C)CC3)S2)cc1	30
CC1(C)N=C(NCc2cccs2)S[C@]12CC[C@@H](C)CC2	30
CC1(C)N=C(NCc2ccc(F)cc2)S[C@]12CC[C@@H](C)CC2	30
CC1(C)N=C(NC(=O)c2ccccc2)S[C@]12CC[C@@H](C)CC2	10
CC1(C)N=C(NCc2ccccc2F)S[C@]12CC[C@@H](C)CC2	10
COc1ccccc1CNC1=NC(C)(C)[C@]2(CC[C@H](C)CC2)S1	10
CC1(C)N=C(NCc2ccc3c(c2)OCO3)S[C@]12CC[C@@H](C)CC2	> 30
COc1ccc(C(=O)NC2=NC(C)(C)[C@]3(CC[C@H](C)CC3)S2)c(OC)c1	3
COc1ccc(CNC2=NC(C)(C)[C@]3(CC[C@H](C)CC3)S2)cc1F	100
CC1(C)N=C(NCc2ccc3cc[nH]c3c2)S[C@]12CC[C@@H](C)CC2	> 30
CC1(C)N=C(NCc2cc(-c3ccccc3)on2)S[C@]12CC[C@@H](C)CC2	10
COc1ccc(C(=O)NC2=NC(C)(C)[C@]3(CC[C@H](C)CC3)S2)cc1	10

SMILES	IC50 at 44 h [µM]
CC(C)(C)OC(=O)N1CCN(CCNC2=NC(C)(C)[C@]3(CC[C@H](C)CC3)S2)CC1	> 30
CC1(C)N=C(NCc2ccccc2)S[C@]12CC[C@@H](C)CC2	10
COc1cc(F)ccc1CNC1=NC(C)(C)[C@]2(CC[C@H](C)CC2)S1	> 30
COc1ccc(CNC2=NC(C)(C)[C@]3(CC[C@H](C)CC3)S2)cc1Cl	> 30
CC1(C)N=C(NCCNCc2ccccc2)S[C@]12CC[C@@H](C)CC2	100
COc1cccc(CNC2=NC(C)(C)[C@]3(CC[C@H](C)CC3)S2)c1	30
CC1(C)N=C(NCCNc2ccccc2)S[C@]12CC[C@@H](C)CC2	10
CC1(C)N=C(NCc2cccc(F)c2)S[C@]12CC[C@@H](C)CC2	10
Cc1cnc(CN2CCN(CCNC3=NC(C)(C)[C@]4(CC[C@H](C)CC4)S3)CC2)cn1	100
Cc1cccnc1NCCNC1=NC(C)(C)[C@]2(CC[C@H](C)CC2)S1	100
CC1(C)N=C(NCCN2CCN(Cc3ccccc3)CC2)S[C@]12CC[C@@H](C)CC2	> 30
CC1(C)N=C(NCc2ccc(O)c(F)c2)S[C@]12CC[C@@H](C)CC2	> 30
CC1(C)N=C(NCc2ccco2)S[C@]12CC[C@@H](C)CC2	> 30
CC1(C)N=C(NCc2ccc(C#N)cc2)S[C@]12CC[C@@H](C)CC2	100
COc1ccc(CNC2=NC(C)(C)[C@]3(CC[C@H](C)CC3)S2)c(OC)c1	100
CC1(C)N=C(NCCn2cccc2)S[C@]12CC[C@@H](C)CC2	100

test system: not listed separately; test: Cytotoxicity against yeast cells assessed as growth inhibition at 100 uM after 44 hrs by turbidometric assay; type: toxicity, cell-based; conditions: saccharomyces cerevisiae

SMILES	Activity
CN(C)CCNC1=NC(C)(C)[C@]2(CC[C@H](C)CC2)S1	Non-Toxic
CC1(C)N=C(NCc2cccnc2)S[C@]12CC[C@@H](C)CC2	Non-Toxic
COCCNC1=NC(C)(C)[C@]2(CC[C@H](C)CC2)S1	Non-Toxic
CCCCN1CCN(CCNC2=NC(C)(C)[C@]3(CC[C@H](C)CC3)S2)CC1	Non-Toxic
CC1(C)N=C(NCc2ccccn2)S[C@]12CC[C@@H](C)CC2	Non-Toxic
CC1(C)N=C(NCCN2CCN(CCO)CC2)S[C@]12CC[C@@H](C)CC2	Non-Toxic
CC1(C)N=C(NCCn2ccnc2)S[C@]12CC[C@@H](C)CC2	Non-Toxic
CC1(C)N=C(NCCN2CCN(S(=O)(=O)c3ccccc3)CC2)S[C@]12CC[C@@H](C)CC2	Non-Toxic
CC1(C)N=C(NCCN2CCCCC2)S[C@]12CC[C@@H](C)CC2	Non-Toxic
CN(C)CCN1CCN(CCNC2=NC(C)(C)[C@]3(CC[C@H](C)CC3)S2)CC1	Non-Toxic
CC1(C)N=C(N2CCNCC2)S[C@]12CC[C@@H](C)CC2	Non-Toxic
CC1(C)N=C(N2CCCCC2)S[C@]12CC[C@@H](C)CC2	Non-Toxic
CC(C)CCN1CCN(CCNC2=NC(C)(C)[C@]3(CC[C@H](C)CC3)S2)CC1	Non-Toxic
CC1(C)N=C(NCc2cccc(O)c2)S[C@]12CC[C@@H](C)CC2	Non-Toxic
CC1(C)N=C(NCCc2ccncc2)S[C@]12CC[C@@H](C)CC2	Non-Toxic
CC1(C)N=C(NCCN2CCN(S(C)(=O)=O)CC2)S[C@]12CC[C@@H](C)CC2	Non-Toxic
CN1CCN(C2=NC(C)(C)[C@]3(CC[C@H](C)CC3)S2)CC1	Non-Toxic

SMILES	Activity
CC1(C)N=C(N2CCOCC2)S[C@]12CC[C@@H](C)CC2	Non-Toxic
CC1(C)N=C(N)S[C@]12CC[C@@H](C)CC2	Non-Toxic
CC1(C)N=C(NCCc2cccnc2)S[C@]12CC[C@@H](C)CC2	Non-Toxic
CC1(C)N=C(NCC2CCNCC2)S[C@]12CC[C@@H](C)CC2	Non-Toxic
CC1(C)N=C(NCCN2CCCC2)S[C@]12CC[C@@H](C)CC2	Non-Toxic
CC1(C)N=C(NCc2ccncc2)S[C@]12CC[C@@H](C)CC2	Non-Toxic
CC1(C)N=C(NCCN2CCOCC2)S[C@]12CC[C@@H](C)CC2	Non-Toxic
COc1ccc(CNC2=NC(C)(C)[C@]3(CC[C@H](C)CC3)S2)cc1OC	Non-Toxic
CCCCCCCCN1CCN(CCNC2=NC(C)(C)[C@]3(CC[C@H](C)CC3)S2)CC1	Non-Toxic
CC(=O)N1CCN(CCNC2=NC(C)(C)[C@]3(CC[C@H](C)CC3)S2)CC1	Non-Toxic
CN1CCC(CNC2=NC(C)(C)[C@]3(CC[C@H](C)CC3)S2)CC1	Non-Toxic
CC(C)N1CCN(CCNC2=NC(C)(C)[C@]3(CC[C@H](C)CC3)S2)CC1	Non-Toxic
CC1(C)N=C(NCCc2ccccn2)S[C@]12CC[C@@H](C)CC2	Non-Toxic
CCOCCN1CCN(CCNC2=NC(C)(C)[C@]3(CC[C@H](C)CC3)S2)CC1	Non-Toxic
CC1(C)N=C(NCCN2CCNCC2)S[C@]12CC[C@@H](C)CC2	Non-Toxic
CC1(C)N=C(NCCN2CCN(CC3CCCCC3)CC2)S[C@]12CC[C@@H](C)CC2	Non-Toxic
CN1CCN(CCNC2=NC(C)(C)[C@]3(CC[C@H](C)CC3)S2)CC1	Non-Toxic

test system: MDCK; test: Antiviral activity against amantadine-sensitive Influenza A virus A/Hong Kong/1/68(H3N2) infected in MDCK cells assessed as protection from virus-induced cell death at 1 uM measured after 72 hrs by MTT assay; type: functional, cell-based; conditions: Influenza A virus (A/Hong Kong/1/1968(H3N2))

SMILES	Activity
CC1(C)N=C(N)S[C@]12CC[C@@H](C)CC2	Active
NC12CC3CC(CC(C3)C1)C2 [AMANTADINE]	Active

test system: not listed separately; test: Cytotoxicity against MDCK cells at 3 uM measured after 72 hrs by MTT assay; type: toxicity, cell-based, Canis lupus familiaris; conditions: dog

SMILES	Activity
CC1(C)N=C(N)S[C@]12CC[C@@H](C)CC2	Non-Toxic
NC12CC3CC(CC(C3)C1)C2 [AMANTADINE]	Non-Toxic

test system: not listed separately; test: Antiviral activity against Influenza A virus A/Puerto Rico/8/34 expressing wild type M2 proton channel infected in MDCK cells assessed as inhibition of viral replication measured after 10 hrs by miniplaque assay; type: functional, cell-based, Influenza A virus (A/Puerto Rico/8/1934(H1N1)); conditions: not given

SMILES	EC50 [µM]
CC1(C)N=C(N)S[C@]12CC[C@@H](C)CC2	0.02
NC12CC3CC(CC(C3)C1)C2 [AMANTADINE]	0.04

test system: not listed separately; test: Antiviral activity against Influenza A virus A/Puerto Rico/8/34 expressing wild type M2 proton channel infected in MDCK cells assessed as inhibition of viral replication at >= 0.8 uM measured after 10 hrs by miniplaque assay; type: functional, Influenza A virus (A/Puerto Rico/8/1934(H1N1)); conditions: not given

SMILES	inhibition (INH) [%]
NC12CC3CC(CC(C3)C1)C2 [AMANTADINE]	>90

test system: MDCK; test: Antiviral activity against Influenza A virus A/Puerto Rico/8/34 expressing wild type M2 proton channel infected MDCK cells assessed as inhibition of viral replication at 20 to 100 uM measured after 10 hrs by miniplaque assay; type: functional, cell-based; conditions: Influenza A virus (A/Puerto Rico/8/1934(H1N1))

SMILES	inhibition
CCCCN1CCN(CCNC2=NC(C)(C)[C@]3(CC[C@H](C)CC3)S2)CC1	Active
CN(C)CCN1CCN(CCNC2=NC(C)(C)[C@]3(CC[C@H](C)CC3)S2)CC1	Active
CC(C)CCN1CCN(CCNC2=NC(C)(C)[C@]3(CC[C@H](C)CC3)S2)CC1	Active
CCCCCCCCN1CCN(CCNC2=NC(C)(C)[C@]3(CC[C@H](C)CC3)S2)CC1	Active
CC1(C)N=C(NCCN2CCN(Cc3ccccc3)CC2)S[C@]12CC[C@@H](C)CC2	Active
CCOCCN1CCN(CCNC2=NC(C)(C)[C@]3(CC[C@H](C)CC3)S2)CC1	Active
CN1CCN(CCNC2=NC(C)(C)[C@]3(CC[C@H](C)CC3)S2)CC1	Active

test system: not listed separately; test: Cytotoxicity against MDCK cells assessed as reduction in cell viability at 100 uM; type: toxicity, cell-based, Canis lupus familiaris; conditions: dog

SMILES	Activity
CCCCN1CCN(CCNC2=NC(C)(C)[C@]3(CC[C@H](C)CC3)S2)CC1	Toxic
CC(C)CCN1CCN(CCNC2=NC(C)(C)[C@]3(CC[C@H](C)CC3)S2)CC1	Toxic
CC1(C)N=C(NCCN2CCN(Cc3ccccc3)CC2)S[C@]12CC[C@@H](C)CC2	Toxic
